# Counter-ions that a name gives are not always drawn.
# Target: human neurokinin-1-receptor (NK1R) (Homo sapiens, UniProt P25103)
# Test: biochemical
# Type: binding
# Details: for IC50: displacement of 125I-substance P, human NK1R in COS or CHO cells, read-out: IC50 @ NKIR
# Method: To express the cloned human neurokinin-1-receptor (NK1R) transiently in COS, the cDNA for the human NK1R was cloned into the expression vector pCDM9 which was derived from pCDM8 (INVITROGEN) by inserting the ampicillin resistance gene (nucleotide 1973 to 2964 from BLUESCRIPT SK+ (trademark, […], La Jolla, Calif., USA)) into the Sac II site. Transfection of 20 ug of the plasmid DNA into 10 million COS cells was achieved by electroporation in 800 μl of transfection buffer (135 mM NaCl, 1.2 mM CaCl2, 1.2 mM MgCl2, 2.4 mM K2 HPO4, 0.6 mM KH2 PO4, 10 mM glucose, 10 mM N-2-hydroxyethyl-piperazine-N'-2-ethane sulphonic acid (HEPES) pH 7.4) at 260 V and 950 μF using the IBI GENEZAPPER (trademark IBI, New Haven, Conn., USA). The cells were incubated in 10% fetal calf serum, 2 mM glutamine, 100 U/ml penicillin-streptomycin, and 90% DMEM media (GIBCO, Grand Island, N.Y., USA) in 5% CO2 at 37° C. for three days before the binding assay.
# To establish a stable cell line expressing cloned human NK1R, the cDNA was subcloned into the vector pRcCMV (INVITROGEN). Transfection of 20 μg of the plasmid DNA into CHO cells was achieved by electroporation in 800 μl of transfection buffer supplemented with 0.625 mg/ml Herring sperm DNA at 300 V and 950 μF using the IBI GENEZAPPER (IBI). The transfected cells were incubated in CHO media [10% fetal calf serum, 100 U/ml penicillin-streptomycin, 2 mM glutamine, 1/500 hypoxanthine-thymidine (ATCC), 90% IMDM media (JRH BIOSCIENCES, Lenexa, Kans., USA), 0.7 mg/ml G418 (GIBCO)] in 5% CO2 at 37° C. until colonies were visible. Each colony was separated and propagated. The cell clone with the highest number of human NK1R was selected for subsequent applications such as drug screening.
# The binding assay of human NK1R expressed in either COS or CHO cells is based on the use of ^125 I-substance P (^125 I-SP, from DU PONT, Boston, Mass.) as a radioactively labeled ligand which competes with unlabeled substance P or any other ligand for binding to the human NK1R. […] The tubes were incubated at 4° C. or at room temperature for 1 hour with gentle shaking. The bound radioactivity was separated from unbound radioactivity by GF/C filter (BRANDEL, Gaithersburg, Md.) which was pre-wetted with 0.1% polyethylenimine. The filter was washed with 3 ml of wash buffer (50 mM Tris pH 7.5, 5 mM MnCl2, 50 mM NaCl) three times and its radioactivity was determined by gamma counter.
# Chain of human neurokinin-1-receptor (NK1R) (P25103 whole entry): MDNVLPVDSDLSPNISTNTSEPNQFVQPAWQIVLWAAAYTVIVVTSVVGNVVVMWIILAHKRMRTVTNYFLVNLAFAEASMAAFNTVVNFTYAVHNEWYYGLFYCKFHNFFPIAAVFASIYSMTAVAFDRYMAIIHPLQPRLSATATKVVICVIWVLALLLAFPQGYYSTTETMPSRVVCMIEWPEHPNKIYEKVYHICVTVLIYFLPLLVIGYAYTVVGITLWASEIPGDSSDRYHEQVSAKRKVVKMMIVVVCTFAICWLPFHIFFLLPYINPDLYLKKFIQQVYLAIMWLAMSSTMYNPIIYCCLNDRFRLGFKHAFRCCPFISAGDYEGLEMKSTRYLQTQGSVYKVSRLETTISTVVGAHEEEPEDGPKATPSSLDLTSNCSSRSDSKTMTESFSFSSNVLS
IC50,SMILES,also measured
300 nM,"FC(F)(F)c1cc(CO[C@@H]2CCCN[C@H]2c2ccccc2)cc(C(F)(F)F)c1 (relative stereo) [Example 13, trans-3-((3,5-Bis(trifluoromethyl)phenyl)methyloxy)-2-phenyl piperidine hydrochloride salt]",
100 nM,"C[N+]1(C)CCC[C@H](OCc2cc(C(F)(F)F)cc(C(F)(F)F)c2)[C@@H]1c1ccccc1 [Example 14, (2S,3S)-3-((3,5-Bis(trifluoromethyl)phenyl)methyloxy)-1,1-dimethyl2-phenylpiperidinium iodide]",
15 nM,"N#CCN1CCC[C@H](OCc2cc(C(F)(F)F)cc(C(F)(F)F)c2)[C@@H]1c1ccccc1 (relative stereo) [Example 40, cis-3 ((3,5Bis(trifluoromethyl)phenyl)methyloxy)-1-cyanomethyl-2-phenylpiperidinium hydrochloride]",
70 nM,"FC(F)(F)c1cc(CO[C@H]2CCCN[C@H]2c2cccs2)cc(C(F)(F)F)c1 (relative stereo) [Example 25, cis-3-((3,5-Bis(trifluoromethyl)phenyl)methyloxy)-2-thienyl piperidine hydrochloride salt]",

# Second part, the compound before the results:
SMILES,IC50,also measured
"COc1ccc(CN2C(=O)CC[C@H](OCc3cc(C(F)(F)F)cc(C(F)(F)F)c3)[C@@H]2c2ccccc2)cc1 (relative stereo) [Example 27, cis-3-((3,5-Bis(trifluoromethyl)phenyl)methyloxy)-6-keto1-(4-methoxybenzyl)-2-phenyl piperidine]",160 nM,
"N#Cc1cccc(CO[C@H]2CCCN[C@H]2c2ccccc2)c1 (relative stereo) [Example 53, cis-3((3-cyanophenyl)methyloxy)-2-phenylpiperidine hydrochloride salt]",,"inhibition at 0.3 µM (1 h, read-out: % @ 300 nM (in column IC50 @ NKIR)): 40%"
NC(=O)C(=O)N1CCC[C@H](OCc2cc(C(F)(F)F)cc(C(F)(F)F)c2)[C@@H]1c1ccccc1 (relative stereo) [Example 38],150 nM,
"c1ccc(CO[C@H]2CCCN[C@H]2c2ccccc2)cc1 (relative stereo) [Example 34, cis-2-Phenyl-3-(phenylmethyloxy)piperidine oxalate salt]",,"inhibition at 1 µM (1 h, read-out: % @ 1 μM (in column IC50 @ NKIR)): 53%"
"FC(F)(F)c1cc(CO[C@H]2CCCN[C@H]2c2ccccc2)cc(C(F)(F)F)c1 [Example 11, (-)-cis-3-((3,5-Bis(trifluoromethyl)phenyl)methyloxy)-2-phenyl piperidine hydrochloride salt]",350 nM,
"Cc1cc(C)cc(CO[C@H]2CCN(C)[C@H]2C(c2ccccc2)c2ccccc2)c1 (relative stereo) [Example 1, cis 2-(Diphenylmethyl)-3-(3,5-dimethylbenzyloxy)-1-methylpyrrolidine]",14 nM,
"Clc1cc(Cl)cc(CO[C@H]2CCCN[C@H]2c2ccccc2)c1 (relative stereo) [Example 47, cis-3-((3,5-Dichlorophenyl)methyloxy)-2-phenylpiperidine hydrochloride salt]",2 nM,

# Reference: patent US5459270A, “Azacyclic compounds, processes for their preparation and pharmaceutical compositions containing them” (Merck Sharp & Dohme Limited, priority 1991, dated 1995)
